{"source": "paper PMC10686834", "about": "“Targeting myeloid chemotaxis to reverse prostate cancer therapy resistance” (Nature, 2023)", "key": {"[1]": {"assay": "Pharmacokinetics of AZD5069 in plasma, non-compartmental analysis (AUClast, Cmax)", "format": "in vivo, human", "description": "Specific pharmacokinetic collection time points are listed in the study protocol. Pharmacokinetic parameters were calculated using non-compartmental analysis (Phoenix v.8.1, Certara). Fresh tumour needle core biopsies from matched disease sites (lymph node, bone and soft tissue) were collected at baseline (within 1 week of treatment commencement) and approximately 2 weeks after starting AZD5069 in patients when this was deemed safe and feasible. Tumour biopsies were obtained from 18 patients under computerized tomography or ultrasound guidance by an experienced interventional radiologist (N.T.). […] One patient had only a baseline tumour biopsy. Two patients underwent on-treatment biopsies after 4 weeks. Immediately after biopsy, tumour samples were immersed in 10% neutral-buffered formalin for 24 hours. Samples were processed through paraffin wax for histologic examination. Three 3 μm sections of formalin-fixed paraffin-embedded (FFPE) tumour biopsy were stained with haematoxylin and eosin to confirm the presence of tumour by a pathologist (B.G.). Tumour samples with insufficient tumour content or significant crushed artefact were excluded from analyses (B.G.). Baseline FFPE samples were analysed by IHC, and pre- and post-treatment FFPE biopsies were analysed by IF and targeted RNA profiling using HTG EdgeSeq. All samples that failed initial analyses by IF were restained at least once. A list of tumour samples and their methods of analyses are detailed in Supplementary Table 4."}, "plasma protein": {"tested_on": "plasma protein", "design": "method as in AZD5069 Investigator Brochure (IB)", "settings": "ref AZD5069 Investigator Brochure (IB); cited from earlier work"}, "P-glycoprotein (P-gp)": {"tested_on": "P-glycoprotein (P-gp)", "design": "method as in AZD5069 Investigator Brochure (IB)", "settings": "at concentrations of up to 100 μmol/L; ref AZD5069 Investigator Brochure (IB); cited from earlier work"}, "CYP2A6": {"tested_on": "CYP2A6", "design": "method as in AZD5069 Investigator Brochure (IB)", "settings": "at concentrations of up to 100 μmol/L; ref AZD5069 Investigator Brochure (IB); cited from earlier work"}, "CYP2C9": {"tested_on": "CYP2C9", "design": "method as in AZD5069 Investigator Brochure (IB)", "settings": "ref AZD5069 Investigator Brochure (IB); cited from earlier work"}, "CYP2B6": {"tested_on": "CYP2B6", "design": "method as in AZD5069 Investigator Brochure (IB)", "settings": "human hepatocytes; ref AZD5069 Investigator Brochure (IB); cited from earlier work"}, "[2]": {"tested_on": "P-glycoprotein (P-gp; MDR1) transporter mRNA", "design": "method as in AZD5069 Investigator Brochure (IB)", "settings": "human hepatocytes; ref AZD5069 Investigator Brochure (IB); cited from earlier work"}, "healthy volunteers": {"tested_on": "healthy volunteers", "design": "method as in AZD5069 Investigator Brochure (IB)", "settings": "ref AZD5069 Investigator Brochure (IB), cited from earlier work"}, "monkey": {"tested_on": "monkey", "settings": "in vivo; cited from earlier work"}, "[3]": {"tested_on": "patients with bronchiectasis", "settings": "cited from earlier work"}, "[4]": {"tested_on": "patients with chronic obstructive pulmonary disease (COPD)", "settings": "cited from earlier work"}, "[5]": {"settings": "bronchiectasis study NCT01255592, on AZD5069, ref AZD5069 Investigator Brochure (IB)"}}, "note": "Where two headings read alike, the source gives them in different places.", "data": [{"smiles": "C[C@@H](Oc1cc(NS(=O)(=O)N2CCC2)nc(SCc2cccc(F)c2F)n1)[C@@H](O)CO", "note": "[AZD5069]", "values": [{"measurement": "AZD5069 exposure (AUClast and Cmax) at steady state versus dose", "setting": "[1]; AZD5069 monotherapy day 15, 40 to 160 mg BD", "value": "increased in a dose-dependent manner"}, {"measurement": "AZD5069 exposure (AUClast) with enzalutamide", "setting": "[1]; combination (28 days) versus monotherapy (14 days), particularly at the higher dose levels", "value": "decreased after the addition of enzalutamide"}, {"measurement": "drug exposure (AUClast and Cmax)", "setting": "[1]; partial responder at AZD5069 80 mg BD", "value": "comparable to those of patients treated at 160 mg BD"}, {"measurement": "bound to plasma protein", "setting": "plasma protein", "value": "> 96", "unit": "%"}, {"measurement": "inhibition of P-glycoprotein (P-gp)", "setting": "P-glycoprotein (P-gp)", "value": "not an inhibitor"}, {"measurement": "inhibition of CYP2A6", "setting": "CYP2A6", "value": "not an inhibitor"}, {"measurement": "IC50", "setting": "CYP2C9", "value": "~53.8", "unit": "µM"}, {"measurement": "induction of CYP2B6 activity", "setting": "CYP2B6", "value": "concentration dependent induction"}, {"measurement": "induction of P-glycoprotein (P-gp; MDR1) transporter mRNA", "setting": "[2]", "value": "concentration dependent induction"}, {"measurement": "adverse effects considered to be related to treatment", "setting": "healthy volunteers; 202 healthy volunteers", "value": "no clinically significant adverse effects"}, {"measurement": "doses with a reduction in blood neutrophil counts", "setting": "healthy volunteers; healthy volunteers", "value": "≥ 5.45", "unit": "mg"}, {"measurement": "NOAEL", "setting": "monkey", "value": 262.5, "unit": "mg/kg BD"}, {"measurement": "mean reduction in blood neutrophils", "setting": "[3]; bronchiectasis study NCT01255592, 80 mg BD, ref AZD5069 Investigator Brochure (IB)", "value": "approximately 16%"}, {"measurement": "reduction in sputum neutrophils compared with placebo", "setting": "[3]; bronchiectasis study NCT01255592, after 4 weeks’ treatment, ref AZD5069 Investigator Brochure (IB)", "value": 69, "unit": "%"}, {"measurement": "patients reporting adverse events (AEs)", "setting": "[3]; [5]", "value": "23 of 26"}, {"measurement": "patients who withdrew because of AEs", "setting": "[3]; [5]", "value": 5}, {"measurement": "infections reported", "setting": "[3]; in vivo", "value": 34.6, "unit": "%"}, {"measurement": "adverse events (AEs)", "setting": "[4]; 50mg AZD5069, ref (18)", "value": 33, "unit": "%"}, {"measurement": "treatment discontinuation for decrease in neutrophils (<1.0 × 10^9/L in two blood samples, 24 hours apart)", "setting": "[4]; 50mg AZD5069, ref (18)", "value": 10, "unit": "%"}, {"measurement": "adverse events (AEs)", "setting": "[4]; 80mg AZD5069, ref (18)", "value": 21, "unit": "%"}, {"measurement": "treatment discontinuation for decrease in neutrophils (<1.0 × 10^9/L in two blood samples, 24 hours apart)", "setting": "[4]; 80mg AZD5069, ref (18)", "value": 4, "unit": "%"}, {"measurement": "AEs leading to discontinuation of treatment", "setting": "[4]; AZD5069 50 mg group, ref (18)", "value": 17, "unit": "%"}, {"measurement": "patients discontinued from the study due to decreased neutrophil count", "setting": "[4]; AZD5069 50 mg group, ref (18)", "value": 3}, {"measurement": "AEs leading to discontinuation of treatment", "setting": "[4]; AZD5069 80 mg group, ref (18)", "value": 7, "unit": "%"}, {"measurement": "average decrease of blood neutrophil counts from baseline", "setting": "[4]; AZD5069 80 mg group, ref (18)", "value": "13-36%"}, {"measurement": "patients discontinued from the study due to decreased neutrophil count", "setting": "[4]; AZD5069 80 mg group, ref (18)", "value": 1}]}]}
